A word on the logP: it is a log measure of how a compound divides between an organic and an aqueous phase. Higher therefore signals a more lipophilic compound. A word on the EC50: it is the concentration that produces a half-maximal response. A lower EC50 goes with a more potent agent.

The values below come from ChEMBL document CHEMBL1159126, “Salicylanilide carbamates: antitubercular agents active against multidrug-resistant Mycobacterium tuberculosis strains” (Bioorg Med Chem, 2010).

Data set [1] deals with Mycobacterium kansasii. Nature of the data set: Antimycobacterial activity against Mycobacterium kansasii 235/80 after 14 days by micromethod. The data set is classed as functional. The conditions noted are these: 235/80, 336 h.
Data set [2] deals with Mycobacterium kansasii. Nature of the data set: Antimycobacterial activity against Mycobacterium kansasii 6509/96 after 14 days by micromethod. The data set is classed as functional. The conditions noted are these: 6509/96, 336 h.
Data set [3] relates to Mycobacterium kansasii. In words: Antimycobacterial activity against Mycobacterium kansasii 6509/96 after 21 days by micromethod. The data set is classed as functional. The conditions noted are these: 6509/96, 504 h.
In data set [4] the test system is Mycobacterium kansasii. In words: Antimycobacterial activity against Mycobacterium kansasii 235/80 after 21 days by micromethod. The data set is classed as functional. The conditions noted are these: 235/80, 504 h.
For data set [5], the system named is Mycobacterium tuberculosis. Nature of the data set: microbe, parasite or virus in culture. The conditions noted are these: 331/88, 504 h.
Description: Antimycobacterial activity against Mycobacterium tuberculosis 331/88 after 21 days by micromethod
A short description of data set [6]: Partition coefficient, log P of the compound. The data set is classed as physicochemical. The conditions noted are these: octanol/water.
For data set [7], the system named is Mycobacterium avium. In words: Antimycobacterial activity against Mycobacterium avium 330/88 after 14 days by micromethod. The data set is classed as functional. The conditions noted are these: 330/88, 336 h.
Data set [8] has as its system Mycobacterium avium. In words: Antimycobacterial activity against Mycobacterium avium 330/88 after 21 days by micromethod. The data set is classed as functional. The conditions noted are these: 330/88, 504 h.
Data set [9] relates to Mycobacterium tuberculosis. In words: microbe, parasite or virus in culture. The conditions noted are these: 331/88, 336 h.
Description: Antimycobacterial activity against Mycobacterium tuberculosis 331/88 after 14 days by micromethod
Data set [10] is described as follows: Toxicity against human HCT8 cells after 72 hrs by XTT assay. The data set is classed as cell-based, HCT-8. (Tetrazolium dyes change colour on reduction, which living cells bring about.)

Converted amounts (≈) assume the structure as drawn.

Regarding `CCCCCCCNC(=O)Oc1ccc(Cl)cc1C(=O)Nc1cccc(Cl)c1`, the MIC with Mycobacterium kansasii [1] turned out to be 4 µM (≈ 1.69 µg/mL); with Mycobacterium kansasii [2], 8 µM (≈ 3.39 µg/mL); against Mycobacterium kansasii [3], 8 µM (≈ 3.39 µg/mL); against Mycobacterium kansasii [4], 8 µM (≈ 3.39 µg/mL); in data set [5], 2 µM (≈ 0.847 µg/mL); with Mycobacterium avium [7], 8 µM (≈ 3.39 µg/mL). In addition, the MIC in the data set with Mycobacterium avium [8] amounted to 8 µM (≈ 3.39 µg/mL); in data set [9], 1 µM (≈ 0.423 µg/mL). The logP in [6] is 5.94.
Consider `CCCCCCCCCNC(=O)Oc1ccc(Cl)cc1C(=O)Nc1ccc(Cl)c(Cl)c1`, for which the MIC against Mycobacterium kansasii [1] is 8 µM (≈ 3.89 µg/mL); in the data set with Mycobacterium kansasii [2], 4 µM (≈ 1.94 µg/mL); with Mycobacterium kansasii [3], 4 µM (≈ 1.94 µg/mL); with Mycobacterium kansasii [4], 8 µM (≈ 3.89 µg/mL); in data set [5], 2 µM (≈ 0.972 µg/mL); in the data set on Mycobacterium avium [7], 8 µM (≈ 3.89 µg/mL). Moreover, the figures for the MIC (against Mycobacterium avium [8]; in data set [9]) were 8 µM (≈ 3.89 µg/mL) and 2 µM (≈ 0.972 µg/mL), respectively. Further, in [6], the logP came out at 7.34.
On to `CCCCCCCCCCCNC(=O)Oc1ccc(Cl)cc1C(=O)Nc1ccc(Cl)c(Cl)c1`, for which the MIC turned out to be 4 µM (≈ 2.06 µg/mL) in the data set with Mycobacterium kansasii [1]; 4 µM (≈ 2.06 µg/mL) in the data set on Mycobacterium kansasii [2]; 4 µM (≈ 2.06 µg/mL) against Mycobacterium kansasii [3]; 4 µM (≈ 2.06 µg/mL) against Mycobacterium kansasii [4]; 2 µM (≈ 1.03 µg/mL) in data set [5]; 16 µM (≈ 8.22 µg/mL) with Mycobacterium avium [7]. Also, the MIC is 16 µM (≈ 8.22 µg/mL) against Mycobacterium avium [8] and 2 µM (≈ 1.03 µg/mL) in data set [9]. This compound displayed a logP in [6] of 8.17.
For the compound `CCCCCCCCNC(=O)Oc1ccc(Cl)cc1C(=O)Nc1cccc(Cl)c1`, the MIC in the data set on Mycobacterium kansasii [1] was found to be 8 µM (≈ 3.5 µg/mL); with Mycobacterium kansasii [2] it was 4 µM (≈ 1.75 µg/mL); against Mycobacterium kansasii [3], 8 µM (≈ 3.5 µg/mL); with Mycobacterium kansasii [4] it was 8 µM (≈ 3.5 µg/mL); in data set [5], 2 µM (≈ 0.875 µg/mL); with Mycobacterium avium [7], 4 µM (≈ 1.75 µg/mL). Further, the MIC against Mycobacterium avium [8] is 4 µM (≈ 1.75 µg/mL); in data set [9], 2 µM (≈ 0.875 µg/mL). Besides, the logP in data set [6] was 6.36.
With `CCNC(=O)Oc1ccc(Cl)cc1C(=O)Nc1ccc(Cl)cc1`, the MIC in the data set on Mycobacterium kansasii [1] was determined as 4 µM (≈ 1.41 µg/mL); in the data set on Mycobacterium kansasii [2], 4 µM (≈ 1.41 µg/mL); against Mycobacterium kansasii [3] it was 8 µM (≈ 2.83 µg/mL); with Mycobacterium kansasii [4], 8 µM (≈ 2.83 µg/mL); in [5], 2 µM (≈ 0.706 µg/mL); with Mycobacterium avium [7] it was 8 µM (≈ 2.83 µg/mL). In addition, the MIC against Mycobacterium avium [8] was found to be 8 µM (≈ 2.83 µg/mL); in data set [9], 1 µM (≈ 0.353 µg/mL). In data set [6], this compound had a logP of 3.79.
With `NNC(=O)c1ccncc1` [ISONIAZID], the MIC is greater than 250 µM against Mycobacterium kansasii [1]; 4 µM (≈ 0.549 µg/mL) in the data set on Mycobacterium kansasii [2]; 4 µM (≈ 0.549 µg/mL) in the data set with Mycobacterium kansasii [3]; greater than 250 µM against Mycobacterium kansasii [4]; 0.5 µM (≈ 0.0686 µg/mL) in [5]; greater than 250 µM with Mycobacterium avium [7]. For the same compound, the figures for the MIC (against Mycobacterium avium [8]; in data set [9]) were greater than 250 µM and 0.5 µM (≈ 0.0686 µg/mL), respectively. For the same compound, the EC50 at 72 h in data set [10] was greater than 100 µM.
With `CCCCCCCNC(=O)Oc1ccc(Cl)cc1C(=O)Nc1ccc(Cl)c(Cl)c1`, the MIC amounted to 2 µM (≈ 0.916 µg/mL) in the data set with Mycobacterium kansasii [1]; 2 µM (≈ 0.916 µg/mL) in the data set on Mycobacterium kansasii [2]; 4 µM (≈ 1.83 µg/mL) against Mycobacterium kansasii [3]; 2 µM (≈ 0.916 µg/mL) with Mycobacterium kansasii [4]; 1 µM (≈ 0.458 µg/mL) in data set [5]; 4 µM (≈ 1.83 µg/mL) against Mycobacterium avium [7]. The MIC against Mycobacterium avium [8] is 8 µM (≈ 3.66 µg/mL); in data set [9], 0.5 µM (≈ 0.229 µg/mL). The compound further came in with a logP in data set [6] of 6.5. This compound also came in with a 50% effective concentration (EC50) at 72 h in data set [10] of 43.4 µM.
Consider `CCCCNC(=O)Oc1ccc(Cl)cc1C(=O)Nc1cccc(Cl)c1`, for which the MIC against Mycobacterium kansasii [1] came out at 16 µM (≈ 6.1 µg/mL); with Mycobacterium kansasii [2] it was 8 µM (≈ 3.05 µg/mL); in the data set with Mycobacterium kansasii [3] it was 16 µM (≈ 6.1 µg/mL); in the data set on Mycobacterium kansasii [4], 16 µM (≈ 6.1 µg/mL); in [5], 4 µM (≈ 1.53 µg/mL); with Mycobacterium avium [7], 8 µM (≈ 3.05 µg/mL). In addition, the MIC is 16 µM (≈ 6.1 µg/mL) in the data set on Mycobacterium avium [8] and 2 µM (≈ 0.763 µg/mL) in [9]. The compound also registered a logP in data set [6] of 4.69.
As for `CCCCCCNC(=O)Oc1ccc(Cl)cc1C(=O)Nc1cccc(Cl)c1`, the MIC came out at 4 µM (≈ 1.64 µg/mL) with Mycobacterium kansasii [1]; 4 µM (≈ 1.64 µg/mL) with Mycobacterium kansasii [2]; 4 µM (≈ 1.64 µg/mL) against Mycobacterium kansasii [3]; 4 µM (≈ 1.64 µg/mL) against Mycobacterium kansasii [4]; 1 µM (≈ 0.409 µg/mL) in data set [5]; 8 µM (≈ 3.27 µg/mL) against Mycobacterium avium [7]. In addition, the MIC with Mycobacterium avium [8] worked out at 8 µM (≈ 3.27 µg/mL); in [9], 0.5 µM (≈ 0.205 µg/mL). In data set [6], the logP stood at 5.53. Further, in [10], the EC50 at 72 h was found to be 14.9 µM.
Regarding `CCCCCCCCCCCNC(=O)Oc1ccc(Cl)cc1C(=O)Nc1ccc(Cl)cc1`, the MIC in the data set with Mycobacterium kansasii [1] is 8 µM (≈ 3.84 µg/mL); against Mycobacterium kansasii [2] it was 8 µM (≈ 3.84 µg/mL); against Mycobacterium kansasii [3], 8 µM (≈ 3.84 µg/mL); in the data set on Mycobacterium kansasii [4], 8 µM (≈ 3.84 µg/mL); in [5] it was 2 µM (≈ 0.959 µg/mL); against Mycobacterium avium [7], 8 µM (≈ 3.84 µg/mL). Moreover, the MIC against Mycobacterium avium [8] worked out at 8 µM (≈ 3.84 µg/mL); in data set [9], 2 µM (≈ 0.959 µg/mL). For the same compound, in data set [6], the logP came to 7.61.
With `CCCCCCNC(=O)Oc1ccc(Cl)cc1C(=O)Nc1ccc(Cl)cc1`, the MIC with Mycobacterium kansasii [1] turned out to be 4 µM (≈ 1.64 µg/mL); in the data set on Mycobacterium kansasii [2] it was 2 µM (≈ 0.819 µg/mL); in the data set on Mycobacterium kansasii [3], 4 µM (≈ 1.64 µg/mL); with Mycobacterium kansasii [4] it was 4 µM (≈ 1.64 µg/mL); in [5], 2 µM (≈ 0.819 µg/mL); in the data set with Mycobacterium avium [7] it was 4 µM (≈ 1.64 µg/mL). The MIC came to 8 µM (≈ 3.27 µg/mL) in the data set on Mycobacterium avium [8] and 1 µM (≈ 0.409 µg/mL) in data set [9]. The logP in data set [6] worked out at 5.53.
